Measurements published in ChEMBL document CHEMBL3885881, “DrugMatrix”.

Species on record: Rattus norvegicus
Experiment: DrugMatrix - Regimen: Daily Repeat
Assay type: toxicity, organism-based, Sprague-Dawley
Set-up: regimen Daily Repeat, gender Male, age 6-8 weeks
Settings: in vivo, po, route oral GAVAGE, […]; for ABSOLUTE BASOPHIL / ABSOLUTE EOSINOPHIL / ABSOLUTE LYMPHOCYTE / ABSOLUTE MONOCYTE / ABSOLUTE SEGMENTED NEUTROPHIL / BASOPHIL / EOSINOPHIL / ERYTHROCYTE COUNT / HEMATOCRIT / HEMOGLOBIN / LEUKOCYTE COUNT / LYMPHOCYTE / MEAN CORPUSCULAR HEMOGLOBIN / MEAN CORPUSCULAR HEMOGLOBIN CONCENTRATION / MEAN CORPUSCULAR VOLUME / MONOCYTE / NEUTROPHIL / NUCLEATED RED BLOOD CELLS / PLATELET COUNT: tissue Blood; for ALANINE AMINOTRANSFERASE / ALBUMIN / ALKALINE PHOSPHATASE / ASPARTATE AMINOTRANSFERASE / BLOOD UREA NITROGEN / CARBON DIOXIDE / CHLORIDE / CHOLESTEROL / CREATINE PHOSPHOKINASE / CREATININE / GLUCOSE / LACTATE DEHYDROGENASE / LIPASE / PHOSPHORUS / POTASSIUM / SODIUM / TOTAL BILIRUBIN / TOTAL PROTEIN / URIC ACID: tissue Plasma
[1] = 47 mg/kg, 120 h, dose level Low, time 5 day
[2] = 250 mg/kg, 72 h, dose level High, time 3 day
[3] = 250 mg/kg, 120 h, dose level High, time 5 day

Compound: CC(=O)Nc1nnc(S(N)(=O)=O)s1 [ACETAZOLAMIDE]
- ABSOLUTE BASOPHIL [1]: 0 CELLS/uL
- ABSOLUTE EOSINOPHIL [1]: 0 CELLS/uL
- ABSOLUTE LYMPHOCYTE [1]: 10200 CELLS/uL
- ABSOLUTE MONOCYTE [1]: 261.33 CELLS/uL
- ABSOLUTE SEGMENTED NEUTROPHIL [1]: 672 CELLS/uL
- BASOPHIL [1]: 0%
- EOSINOPHIL [1]: 0%
- ERYTHROCYTE COUNT [1]: 5.43 x10E6/uL
- HEMATOCRIT [1]: 33.83%
- HEMOGLOBIN [1]: 13.43 G/DL
- LEUKOCYTE COUNT [1]: 11.13 x10E3/uL
- LYMPHOCYTE [1]: 91.67%
- MEAN CORPUSCULAR HEMOGLOBIN [1]: 24.73 pg
- MEAN CORPUSCULAR HEMOGLOBIN CONCENTRATION [1]: 39.7 G/DL
- MEAN CORPUSCULAR VOLUME [1]: 62.3 fL
- MONOCYTE [1]: 2.33%
- NEUTROPHIL [1]: 6%
- NUCLEATED RED BLOOD CELLS [1]: 0.33 /100WBC
- PLATELET COUNT [1]: 1186.33 x10E3/uL
- ALANINE AMINOTRANSFERASE [1]: 60.33 u/L
- ALBUMIN [1]: 4.07 G/DL
- ALKALINE PHOSPHATASE [1]: 448.67 u/L
- ASPARTATE AMINOTRANSFERASE [1]: 74.67 u/L
- BLOOD UREA NITROGEN [1]: 14 mg/dL
- CARBON DIOXIDE [1]: 27.67 mmol/L
- CHLORIDE [1]: 104 MEQ/L
- CHOLESTEROL [1]: 61.33 mg/dL
- CREATINE PHOSPHOKINASE [1]: 271.67 u/L
- CREATININE [1]: 0.14 mg/dL
- GLUCOSE [1]: 155 mg/dL
- LACTATE DEHYDROGENASE [1]: 142 u/L
- LIPASE [1]: 10.33 u/L
- PHOSPHORUS [1]: 9.17 mg/dL
- POTASSIUM [1]: 5.17 MEQ/L
- SODIUM [1]: 145.83 MEQ/L
- TOTAL BILIRUBIN [1]: 0.23 mg/dL
- TOTAL PROTEIN [1]: 6.07 G/DL
- URIC ACID [1]: 0.33 mg/dL
- ABSOLUTE BASOPHIL [2]: 0 CELLS/uL
- ABSOLUTE EOSINOPHIL [2]: 0 CELLS/uL
- ABSOLUTE LYMPHOCYTE [2]: 8200.33 CELLS/uL
- ABSOLUTE MONOCYTE [2]: 117.33 CELLS/uL
- ABSOLUTE SEGMENTED NEUTROPHIL [2]: 382.33 CELLS/uL
- BASOPHIL [2]: 0%
- EOSINOPHIL [2]: 0%
- ERYTHROCYTE COUNT [2]: 5.26 x10E6/uL
- HEMATOCRIT [2]: 32.4%
- HEMOGLOBIN [2]: 12.8 G/DL
- LEUKOCYTE COUNT [2]: 8.7 x10E3/uL
- LYMPHOCYTE [2]: 94.33%
- MEAN CORPUSCULAR HEMOGLOBIN [2]: 24.33 pg
- MEAN CORPUSCULAR HEMOGLOBIN CONCENTRATION [2]: 39.5 G/DL
- MEAN CORPUSCULAR VOLUME [2]: 61.57 fL
- MONOCYTE [2]: 1.33%
- NEUTROPHIL [2]: 4.33%
- NUCLEATED RED BLOOD CELLS [2]: 0 /100WBC
- PLATELET COUNT [2]: 1163 x10E3/uL
- ALANINE AMINOTRANSFERASE [2]: 77 u/L
- ALBUMIN [2]: 3.83 G/DL
- ALKALINE PHOSPHATASE [2]: 352.67 u/L
- ASPARTATE AMINOTRANSFERASE [2]: 83.67 u/L
- BLOOD UREA NITROGEN [2]: 11.67 mg/dL
- CARBON DIOXIDE [2]: 29.67 mmol/L
- CHLORIDE [2]: 101.67 MEQ/L
- CHOLESTEROL [2]: 73.33 mg/dL
- CREATINE PHOSPHOKINASE [2]: 296.33 u/L
- CREATININE [2]: 0.37 mg/dL
- GLUCOSE [2]: 157 mg/dL
- LACTATE DEHYDROGENASE [2]: 154 u/L
- LIPASE [2]: 11.33 u/L
- PHOSPHORUS [2]: 9.67 mg/dL
- POTASSIUM [2]: 4.85 MEQ/L
- SODIUM [2]: 144.27 MEQ/L
- TOTAL BILIRUBIN [2]: 0.2 mg/dL
- TOTAL PROTEIN [2]: 5.67 G/DL
- URIC ACID [2]: 0.33 mg/dL
- ABSOLUTE BASOPHIL [3]: 0 CELLS/uL
- ABSOLUTE EOSINOPHIL [3]: 64 CELLS/uL
- ABSOLUTE LYMPHOCYTE [3]: 8180.67 CELLS/uL
- ABSOLUTE MONOCYTE [3]: 154.33 CELLS/uL
- ABSOLUTE SEGMENTED NEUTROPHIL [3]: 767.67 CELLS/uL
- BASOPHIL [3]: 0%
- EOSINOPHIL [3]: 0.67%
- ERYTHROCYTE COUNT [3]: 5.67 x10E6/uL
- HEMATOCRIT [3]: 35.23%
- HEMOGLOBIN [3]: 13.9 G/DL
- LEUKOCYTE COUNT [3]: 9.17 x10E3/uL
- LYMPHOCYTE [3]: 89.33%
- MEAN CORPUSCULAR HEMOGLOBIN [3]: 24.53 pg
- MEAN CORPUSCULAR HEMOGLOBIN CONCENTRATION [3]: 39.47 G/DL
- MEAN CORPUSCULAR VOLUME [3]: 62.1 fL
- MONOCYTE [3]: 1.67%
- NEUTROPHIL [3]: 8.33%
- NUCLEATED RED BLOOD CELLS [3]: 0 /100WBC
- PLATELET COUNT [3]: 1233.67 x10E3/uL
- ALANINE AMINOTRANSFERASE [3]: 59 u/L
- ALBUMIN [3]: 4.03 G/DL
- ALKALINE PHOSPHATASE [3]: 354.67 u/L
- ASPARTATE AMINOTRANSFERASE [3]: 71 u/L
- BLOOD UREA NITROGEN [3]: 15 mg/dL
- CARBON DIOXIDE [3]: 23.33 mmol/L
- CHLORIDE [3]: 109.33 MEQ/L
- CHOLESTEROL [3]: 66 mg/dL
- CREATINE PHOSPHOKINASE [3]: 397 u/L
- CREATININE [3]: 0.18 mg/dL
- GLUCOSE [3]: 141.67 mg/dL
- LACTATE DEHYDROGENASE [3]: 111.33 u/L
- LIPASE [3]: 10.33 u/L
- PHOSPHORUS [3]: 8.57 mg/dL
- POTASSIUM [3]: 5.2 MEQ/L
- SODIUM [3]: 146 MEQ/L
- TOTAL BILIRUBIN [3]: 0.17 mg/dL
- TOTAL PROTEIN [3]: 6.1 G/DL
- URIC ACID [3]: 0.53 mg/dL
